# Test results reported in ChEMBL document CHEMBL3124763.
# Active and inactive are the calls of the source. The calls are words filed in the database; no cut-off is given here. Where a SMILES comes first, the peptide text is derived from it. The star is where a group is joined. Decanoyl = CCCCCCCCCC(=O)*; CH2Cl = ClC*
# Biological target: Furin (Homo sapiens) (UniProt P09958)
# Test: Inhibition of furin in human HEK293FT cells assessed as HA5 maturation at 25 uM after 48 hrs by Western blotting analysis
# Format: cell-based
# Chain of Furin (Homo sapiens) (P09958 whole entry): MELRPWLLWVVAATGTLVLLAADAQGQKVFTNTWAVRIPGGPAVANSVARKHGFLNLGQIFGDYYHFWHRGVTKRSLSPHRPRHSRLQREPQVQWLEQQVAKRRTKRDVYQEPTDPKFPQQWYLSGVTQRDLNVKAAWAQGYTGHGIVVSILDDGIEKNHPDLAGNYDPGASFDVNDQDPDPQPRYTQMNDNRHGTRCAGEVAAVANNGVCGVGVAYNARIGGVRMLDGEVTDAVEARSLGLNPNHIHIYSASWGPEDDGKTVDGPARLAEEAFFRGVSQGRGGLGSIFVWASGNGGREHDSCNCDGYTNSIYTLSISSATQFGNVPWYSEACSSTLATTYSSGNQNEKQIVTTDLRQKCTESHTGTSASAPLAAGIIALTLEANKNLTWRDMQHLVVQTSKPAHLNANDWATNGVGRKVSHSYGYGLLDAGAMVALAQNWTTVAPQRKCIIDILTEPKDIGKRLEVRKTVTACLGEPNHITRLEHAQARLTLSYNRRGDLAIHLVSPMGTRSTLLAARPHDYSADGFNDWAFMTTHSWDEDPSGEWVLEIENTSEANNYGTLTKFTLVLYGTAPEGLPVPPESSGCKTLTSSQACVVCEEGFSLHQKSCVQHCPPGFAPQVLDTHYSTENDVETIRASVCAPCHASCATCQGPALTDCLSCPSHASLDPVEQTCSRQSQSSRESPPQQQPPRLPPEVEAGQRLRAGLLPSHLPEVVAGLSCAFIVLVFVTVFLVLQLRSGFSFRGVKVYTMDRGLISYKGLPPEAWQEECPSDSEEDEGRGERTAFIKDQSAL
structure (smiles),measurement,value
CCCCCCCCCC(=O)N[C@@H](CCCNC(=N)N)C(=O)N[C@H](C(=O)N[C@@H](CCCCN)C(=O)N[C@@H](CCCNC(=N)N)C(=O)CCl)C(C)C (Decanoyl-RVKR-CH2Cl),inhibition,Active
